In paper PMC8129716 (CPT: Pharmacometrics & Systems Pharmacology, 2021):

Legend:
CYP3A [1] = details: cited from earlier work
CYP3A [2] = details: co-administration of itraconazole; cited from earlier work
CYP3A [3] = experiment: PBPK simulation of zanubrutinib as perpetrator, midazolam; set-up: species or system human
CYP3A [4] = details: midazolam 2 mg with/without zanubrutinib 160 mg b.i.d.; cited from earlier work
CYP2C19 [5] = experiment: PBPK simulation of zanubrutinib as perpetrator, omeprazole; set-up: species or system human
CYP2C19 [6] = details: omeprazole 20 mg with/without zanubrutinib; cited from earlier work
CYP2C9 [7] = experiment: PBPK simulation of zanubrutinib as perpetrator, warfarin; set-up: species or system human
CYP2C9 [8] = details: warfarin 10 mg with/without zanubrutinib; cited from earlier work

Structure (SMILES): NC(=O)N1c2ccccc2C=Cc2ccccc21 [Carbamazepine]
- simulated ribociclib AUC ratio (with/without inducer) (CYP3A [1]): 0.48

Structure (SMILES): O=C1Nc2ccc(Cl)cc2[C@@](C#CC2CC2)(C(F)(F)F)O1 [Efavirenz]
- simulated ribociclib AUC ratio (with/without inducer) (CYP3A [1]): 0.40

Structure (SMILES): CCC(C)n1ncn(-c2ccc(N3CCN(c4ccc(OCC5COC(Cn6cncn6)(c6ccc(Cl)cc6Cl)O5)cc4)CC3)cc2)c1=O (stereo not drawn) [itraconazole]
- increase of zanubrutinib AUC0-t (CYP3A [2]): 3.9 fold
- increase of zanubrutinib Cmax (CYP3A [2]): 2.6 fold

Structure (SMILES): Cc1ncc2n1-c1ccc(Cl)cc1C(c1ccccc1F)=NC2 [midazolam, reference compound]
- midazolam AUC ratio observed/predicted (CYP3A [3]): 1.02
- midazolam AUC ratio, observed (90% CI) (CYP3A [4]): 0.53 (0.48–0.57)
- midazolam Cmax ratio, observed (90% CI) (CYP3A [4]): 0.70 (0.63–0.78)

Structure (SMILES): COc1ccc2[nH]c([S+]([O-])Cc3ncc(C)c(OC)c3C)nc2c1 (stereo not drawn) [omeprazole]
- omeprazole AUC ratio observed/predicted (CYP2C19 [5]): 0.67
- omeprazole Cmax ratio observed/predicted (CYP2C19 [5]): 0.81
- omeprazole AUC ratio, observed (90% CI) (CYP2C19 [6]): 0.63 (0.5–0.70)
- omeprazole Cmax ratio, observed (90% CI) (CYP2C19 [6]): 0.79 (0.65–0.97)

Structure (SMILES): CC(=O)CC(c1ccccc1)c1c(O)c2ccccc2oc1=O (stereo not drawn) [warfarin]
- warfarin AUC ratio observed/predicted (CYP2C9 [7]): 1.03
- warfarin Cmax ratio observed/predicted (CYP2C9 [7]): 0.95
- warfarin AUC ratio, observed (90% CI) (CYP2C9 [8]): 1.00 (0.98–1.03)
- warfarin Cmax ratio, observed (90% CI) (CYP2C9 [8]): 0.95 (0.87–1.04)
